Results as given in patent publication US4999424A, “GAR transformylase inhibitor” (The Pennsylvania State University, priority 1988, dated 1991).

Tests used:
E. coli GAR TFase [1] = target: T1, E. coli GAR TFase (Escherichia coli, UniProt P08179); assay: Fluorescence titration, dissociation constant for E. coli GAR TFase; assay type: binding; settings: average from three wavelengths (396, 400, 405 nm); standard error about 50 pM; 11 nM inhibitor, excitation 275 nm; read-out: thermodynamic dissociation constant, KD
T1 construct: made in house; host or cells: E. coli TX393 with multicopy plasmid pJS85, or E. coli TX635 with lambda pL plasmid pJS119 or pJS167
T1 sequence (P08179 1-212): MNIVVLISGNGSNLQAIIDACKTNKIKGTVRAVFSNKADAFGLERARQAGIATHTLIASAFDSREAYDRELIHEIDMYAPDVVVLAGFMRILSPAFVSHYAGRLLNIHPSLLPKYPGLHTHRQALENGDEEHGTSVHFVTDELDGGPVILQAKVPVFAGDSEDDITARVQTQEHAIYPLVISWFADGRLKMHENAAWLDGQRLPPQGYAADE
Procedure: The thermodynamic dissociation constant, KD, for the E.β-TGDDF complex was measured by following the enhancement of the inhibitor's 395 nm fluorescence (excitation at 275 nm) upon binding to GAR TFase. A concentrated E. coli GAR TFase solution was added to an 11 nM solution of purified β-TGDDF; for each addition, the fluorescence at three different wavelengths (396, 400, and 405 nm) was measured. Fluorescence titration data was analyzed by the method of Taira and Benkovic, J. Med. Chem., 31, 129-137 (1988).
(§1) In analyzing the biological activity of the compounds of the present invention, GAR TFase from E. coli was used. This enzyme behaves like the mammalian and avian enzyme with respect to substrate specificity, yet is a simple and effective system having only one biological activity. That is, unlike the avian trifunctional GAR TFase, the E. coli species has a sole function. This follows from the genetic evidence of Smith and Daum, J. Biol. Chem., 262, 10565-10569 (1987) as w®11 as the work of Schrimsher et al., Biochemistry, 25, 4366-4371 (1986) who have shown that […] from E. coli is a monofunctional protein, whereas, in chicken it belongs to a trifunctional protein containing, the activates: GAR SYNthase, GAR TFase, and AIR SYNthase.
The E. coli GAR TFase binding constants for the compounds of the present invention and other folate analogs are shown in Table I below: […]

GAR TFase (avian) = GAR TFase (avian) (Gallus gallus, UniProt P21872); assay: Avian GAR TFase inhibition; assay type: biochemical; settings: for Mode of inhibition: avian GAR TFase
Chain of GAR TFase (avian) (P21872 whole entry): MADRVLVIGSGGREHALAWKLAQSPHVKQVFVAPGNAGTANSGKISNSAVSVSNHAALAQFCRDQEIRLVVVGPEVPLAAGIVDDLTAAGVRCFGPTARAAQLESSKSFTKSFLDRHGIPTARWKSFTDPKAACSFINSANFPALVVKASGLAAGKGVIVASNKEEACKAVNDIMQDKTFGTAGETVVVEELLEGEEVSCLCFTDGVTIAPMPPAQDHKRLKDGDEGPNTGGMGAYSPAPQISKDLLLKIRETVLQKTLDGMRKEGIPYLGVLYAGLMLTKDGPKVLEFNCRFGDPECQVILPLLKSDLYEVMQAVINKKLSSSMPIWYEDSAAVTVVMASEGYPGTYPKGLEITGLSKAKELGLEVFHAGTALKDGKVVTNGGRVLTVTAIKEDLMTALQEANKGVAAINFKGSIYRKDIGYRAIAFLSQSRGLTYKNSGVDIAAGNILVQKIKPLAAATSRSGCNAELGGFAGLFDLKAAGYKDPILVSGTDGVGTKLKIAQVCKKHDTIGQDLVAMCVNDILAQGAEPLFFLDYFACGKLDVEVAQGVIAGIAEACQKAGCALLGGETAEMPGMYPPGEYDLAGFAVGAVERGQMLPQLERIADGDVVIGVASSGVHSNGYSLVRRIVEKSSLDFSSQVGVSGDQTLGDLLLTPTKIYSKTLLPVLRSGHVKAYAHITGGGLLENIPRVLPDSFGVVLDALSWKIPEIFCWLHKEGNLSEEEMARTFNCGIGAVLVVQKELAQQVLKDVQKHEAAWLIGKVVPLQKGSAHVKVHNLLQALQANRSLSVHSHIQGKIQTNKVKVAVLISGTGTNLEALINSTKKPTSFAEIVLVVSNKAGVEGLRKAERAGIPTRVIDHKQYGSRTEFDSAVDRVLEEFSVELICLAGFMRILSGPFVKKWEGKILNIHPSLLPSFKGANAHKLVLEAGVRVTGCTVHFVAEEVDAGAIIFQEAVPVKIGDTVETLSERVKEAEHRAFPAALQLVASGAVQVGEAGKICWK
Procedure: (§2) All assays were carried out by following the increase of 5,8-dideazafolate absorbence at 295 nm in buffered medium at 26° C. To initiate the reaction, enzyme (1 nM final concentration) was added to a mixture of saturating substrates and variable amounts of inhibitor. A characteristic family of curves was obtained, showing slow, tight-binding inhibition. See, Morrison, Trends Biochem. Sc., 7, 102 (1982) and Morrison, et al., Adv. Enzymology, Relat. Areas Mol. Biol., 57, 201-301 (1987).
The specificity of beta-TGDDF for GAR TFase from species other than E. coli was assayed in a general manner by measuring the activity of GAR TFase at a concentration of 1 nM from avian, HeLa, and L121? sources in the presence of 20 nM beta-TGDDF.
(§3) Table II illustrates the specificity of beta-TGDDF for GAR TFase in comparison with other reduced-folate utilizing enzymes. This test, was conducted using the same [I]/[E]ratios as stated previously.

E. coli GAR TFase [2] = target: T1, E. coli GAR TFase; assay: E. coli GAR TFase inhibition/activity assay (5,8-dideazafolate absorbance at 295 nm); assay type: biochemical; settings: E. coli GAR TFase, 26° C, 1 nM enzyme, saturating substrates
Procedure: as §2, §1
The E. coli GAR TFase binding constants for the compounds of the present invention and other folate analogs are shown in Table I below:
as §3

In the case of `Nc1nc2ccc(CN(C(=O)CSCC(=O)N[C@@H]3O[C@H](COP(=O)(O)O)[C@@H](O)[C@H]3O)c3ccc(C(=O)N[C@@H](CCC(=O)O)C(=O)O)cc3)cc2c(=O)[nH]1` [beta-TGDDF, N^10-[5'-phosphoribosyl-1'-β-amino-carbonylmethyl-1-thioacetyl]-5,8-dideazafolate], the Kd (E. coli GAR TFase [1]) is reported as 250 pM, the Extent of inhibition (GAR TFase (avian); 20 nM beta-TGDDF, 1 nM enzyme) is reported as “inhibited by roughly the same magnitude” and the Mode of inhibition (GAR TFase (avian)) is reported as “inhibition of a slow, tight binding nature”. The Mode of inhibition (GAR TFase (avian); listed as Beta-TGDDF) was “slow, tight-binding inhibitor” and the Mode of inhibition (E. coli GAR TFase [2]) was “slow, tight-binding inhibitor”.
